Biological target: Mitogen-activated protein kinase 1 (Homo sapiens, UniProt P28482)
Assay: Cell-Free Kinase Assays: The inhibitory effect of the compounds according to the invention was tested on various serine/threonine, tyrosine and lipid kinases in enzymatic assays. Recombinant human kinases such as, for example, Erk2, were used in this case, partly as full-length kinases, partly as shortened fragments, but at least consisting of the functional kinase domains. The commercial kinase proteins (Proqinase, Upstate) were used as recombinant fusion proteins with GST (glutathion-S-transferase) or His-Tag. Depending on the type of substrate, the various kinase reactions were quantified by means of suitable ALPHA beads (Perkin-Elmer). MAPK-ALPHAs (e.g. Erk2): the test substance, 0.625 ng Erk2 (#14-173, Upstate), 10 uM ATP and 15 nM biotinylated MBP (myelin basic protein) substrate were incubated on a 384-well Optiplate (Perkin-Elmer) in a volume of 15 ul for 1 h in 25 mM Tris, 10 mM MgCl2, 0.1% Tween-20, 100 uM NaVO4, 2 mM DTT at pH 7.5.

Chain of Mitogen-activated protein kinase 1 (P28482 whole entry, the tested form may be a part): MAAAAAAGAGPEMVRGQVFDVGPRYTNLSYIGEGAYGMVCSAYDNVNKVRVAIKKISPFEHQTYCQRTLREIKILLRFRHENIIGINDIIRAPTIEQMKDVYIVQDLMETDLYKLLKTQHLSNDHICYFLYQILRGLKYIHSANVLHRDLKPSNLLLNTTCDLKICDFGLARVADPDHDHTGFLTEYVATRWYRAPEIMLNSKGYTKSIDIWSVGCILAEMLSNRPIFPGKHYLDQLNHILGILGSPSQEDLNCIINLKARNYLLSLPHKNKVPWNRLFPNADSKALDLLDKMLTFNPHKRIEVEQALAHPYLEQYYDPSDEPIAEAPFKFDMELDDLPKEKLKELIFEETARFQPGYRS

O=C(NCCCCc1ccccc1)Nc1ccc2ncc(-c3cnn(CC(F)F)c3)nc2n1
IC50: 2 nM

From ChEMBL document CHEMBL3639008, “Pyridopyrazines as highly selective ras-Raf-Mek-Erk signal transduction pathway inhibitors” (2014)
